Assays:
Test in all cases: relative viability (nuclei count vs DMSO), 5 days (fraction); higher = more cells survive
[1] = tested on: NCI-H1666
Procedure, shortened: (§1)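 Relative viability is defined as nuclei in treated wells over nuclei in vehicle wells. Duplicate plates were run and medians reported. Lung cancer cell lines in 1536-well plates were dosed by pin tool one day after seeding, with one drug or with a fixed anchor-drug dose plus five library-drug doses (not always all listed) in √10 steps, and nuclei were counted after 5 days.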

[2] = tested on: NCI-H3122
Procedure, shortened: as §1

[3] = tested on: HOP-62
Procedure, shortened: as §1

[4] = tested on: NCI-H1355
Procedure, shortened: as §1

[5] = tested on: BEN
Procedure, shortened: as §1

[6] = tested on: NCI-H647
Procedure, shortened: as §1

[7] = tested on: LU99A
Procedure, shortened: as §1

[8] = tested on: ABC-1
Procedure, shortened: as §1

[9] = tested on: PC-14
Procedure, shortened: as §1

[10] = tested on: NCI-H727
Procedure, shortened: as §1

[11] = tested on: NCI-H1792
Procedure, shortened: as §1

[12] = tested on: NCI-H358
Procedure, shortened: as §1

[13] = tested on: EPLC-272H
Procedure, shortened: as §1

[14] = tested on: UMC-11
Procedure, shortened: as §1

[15] = tested on: NCI-H2405
Procedure, shortened: as §1

[16] = tested on: HCC-827
Procedure, shortened: as §1

[17] = tested on: NCI-H1975
Procedure, shortened: as §1

[18] = tested on: NCI-H838
Procedure, shortened: as §1

[19] = tested on: NCI-H2170
Procedure, shortened: as §1

[20] = tested on: NCI-H322M
Procedure, shortened: as §1

[21] = tested on: NCI-H520
Procedure, shortened: as §1

[22] = tested on: NCI-H23
Procedure, shortened: as §1

[23] = tested on: NCI-H596
Procedure, shortened: as §1

Cc1cnc(-c2cnc(NCCNc3ccc(C#N)cn3)nc2-c2ccc(Cl)cc2Cl)[nH]1 + CC(=O)c1c(C)c2cnc(Nc3ccc(N4CCNCC4)cn3)nc2n(C2CCCC2)c1=O [Palbociclib] (partner 0.5 µM)
relative viability ([1]; first compound 0.08 µM): 0.607
relative viability ([1]; first compound 0.253 µM): 0.626
relative viability ([1]; first compound 0.8 µM): 0.615
relative viability ([1]; first compound 2.53 µM): 0.609
relative viability ([2]; first compound 0.08 µM): 0.178
relative viability ([2]; first compound 0.8 µM): 0.181
relative viability ([2]; first compound 2.53 µM): 0.188
relative viability ([3]; first compound 0.08 µM): 0.531
relative viability ([3]; first compound 0.253 µM): 0.426
relative viability ([3]; first compound 0.8 µM): 0.446
relative viability ([3]; first compound 2.53 µM): 0.45
relative viability ([4]; first compound 0.08 µM): 0.427
relative viability ([4]; first compound 0.253 µM): 0.383
relative viability ([4]; first compound 0.8 µM): 0.407
relative viability ([4]; first compound 2.53 µM): 0.383
relative viability ([5]; first compound 0.08 µM): 0.495
relative viability ([5]; first compound 0.253 µM): 0.506
relative viability ([5]; first compound 0.8 µM): 0.687
relative viability ([5]; first compound 2.53 µM): 0.545
relative viability ([6]; first compound 0.08 µM): 0.434
relative viability ([6]; first compound 0.253 µM): 0.303
relative viability ([6]; first compound 0.8 µM): 0.419
relative viability ([6]; first compound 2.53 µM): 0.393
relative viability ([7]; first compound 0.08 µM): 0.375
relative viability ([7]; first compound 0.253 µM): 0.388
relative viability ([7]; first compound 0.8 µM): 0.442
relative viability ([7]; first compound 2.53 µM): 0.389
relative viability ([8]; first compound 0.08 µM): 0.903
relative viability ([8]; first compound 0.253 µM): 0.338
relative viability ([8]; first compound 0.8 µM): 0.54
relative viability ([8]; first compound 2.53 µM): 0.675
relative viability ([9]; first compound 0.08 µM): 0.572
relative viability ([9]; first compound 0.253 µM): 0.503
relative viability ([9]; first compound 0.8 µM): 0.614
relative viability ([9]; first compound 2.53 µM): 0.323
relative viability ([10]; first compound 0.08 µM): 0.659
relative viability ([10]; first compound 0.253 µM): 0.637
relative viability ([10]; first compound 0.8 µM): 0.644
relative viability ([10]; first compound 2.53 µM): 0.663
relative viability ([11]; first compound 0.08 µM): 0.677
relative viability ([11]; first compound 0.253 µM): 0.551
relative viability ([11]; first compound 0.8 µM): 0.646
relative viability ([11]; first compound 2.53 µM): 0.625
relative viability ([12]; first compound 0.08 µM): 0.13
relative viability ([12]; first compound 0.253 µM): 0.14
relative viability ([12]; first compound 0.8 µM): 0.134
relative viability ([12]; first compound 2.53 µM): 0.143
relative viability ([13]; first compound 0.08 µM): 0.345
relative viability ([13]; first compound 0.253 µM): 0.323
relative viability ([13]; first compound 0.8 µM): 0.309
relative viability ([13]; first compound 2.53 µM): 0.373
relative viability ([14]; first compound 0.08 µM): 0.354
relative viability ([14]; first compound 0.253 µM): 0.346
relative viability ([14]; first compound 0.8 µM): 0.364
relative viability ([14]; first compound 2.53 µM): 0.401
relative viability ([15]; first compound 0.08 µM): 0.571
relative viability ([15]; first compound 0.253 µM): 0.452
relative viability ([15]; first compound 0.8 µM): 0.57
relative viability ([15]; first compound 2.53 µM): 0.495
relative viability ([16]; first compound 0.08 µM): 0.48
relative viability ([16]; first compound 0.253 µM): 0.371
relative viability ([16]; first compound 0.8 µM): 0.484
relative viability ([16]; first compound 2.53 µM): 0.387
relative viability ([17]; first compound 0.08 µM): 0.69
relative viability ([17]; first compound 0.253 µM): 0.519
relative viability ([17]; first compound 0.8 µM): 0.487
relative viability ([17]; first compound 2.53 µM): 0.301
relative viability ([18]; first compound 0.08 µM): 0.259
relative viability ([18]; first compound 0.253 µM): 0.256
relative viability ([18]; first compound 0.8 µM): 0.253
relative viability ([18]; first compound 2.53 µM): 0.389
relative viability ([19]; first compound 0.08 µM): 0.429
relative viability ([19]; first compound 0.8 µM): 0.383
relative viability ([19]; first compound 2.53 µM): 0.371
relative viability ([20]; first compound 0.08 µM): 0.467
relative viability ([20]; first compound 0.253 µM): 0.553
relative viability ([20]; first compound 0.8 µM): 0.477
relative viability ([20]; first compound 2.53 µM): 0.588
relative viability ([21]; first compound 0.08 µM): 0.332
relative viability ([21]; first compound 0.253 µM): 0.202
relative viability ([21]; first compound 0.8 µM): 0.224
relative viability ([21]; first compound 2.53 µM): 0.265
relative viability ([22]; first compound 0.08 µM): 0.378
relative viability ([22]; first compound 0.253 µM): 0.49
relative viability ([22]; first compound 0.8 µM): 0.515
relative viability ([22]; first compound 2.53 µM): 0.616

Cc1cnc(-c2cnc(NCCNc3ccc(C#N)cn3)nc2-c2ccc(Cl)cc2Cl)[nH]1 + NC(=O)Nc1cc(-c2cccc(F)c2)sc1C(=O)N[C@H]1CCCNC1 [AZD7762] (partner 0.2 µM)
relative viability ([1]; first compound 0.08 µM): 0.852
relative viability ([1]; first compound 0.253 µM): 0.864
relative viability ([1]; first compound 0.8 µM): 0.838
relative viability ([1]; first compound 2.53 µM): 0.78
relative viability ([2]; first compound 0.08 µM): 0.995
relative viability ([2]; first compound 0.8 µM): 1.03
relative viability ([2]; first compound 2.53 µM): 0.98
relative viability ([23]; first compound 0.08 µM): 1.3
relative viability ([23]; first compound 0.253 µM): 0.974
relative viability ([23]; first compound 0.8 µM): 1.09
relative viability ([23]; first compound 2.53 µM): 1.01
relative viability ([3]; first compound 0.08 µM): 0.817
relative viability ([3]; first compound 0.253 µM): 0.383
relative viability ([3]; first compound 0.8 µM): 0.45
relative viability ([3]; first compound 2.53 µM): 0.748
relative viability ([4]; first compound 0.08 µM): 0.831
relative viability ([4]; first compound 0.253 µM): 0.624
relative viability ([4]; first compound 0.8 µM): 0.691
relative viability ([4]; first compound 2.53 µM): 0.577
relative viability ([5]; first compound 0.08 µM): 0.714
relative viability ([5]; first compound 0.253 µM): 0.699
relative viability ([5]; first compound 0.8 µM): 0.726
relative viability ([5]; first compound 2.53 µM): 0.736
relative viability ([6]; first compound 0.08 µM): 0.439
relative viability ([6]; first compound 0.253 µM): 0.341
relative viability ([6]; first compound 0.8 µM): 0.405
relative viability ([6]; first compound 2.53 µM): 0.364
relative viability ([7]; first compound 0.08 µM): 0.393
relative viability ([7]; first compound 0.253 µM): 0.368
relative viability ([7]; first compound 0.8 µM): 0.333
relative viability ([7]; first compound 2.53 µM): 0.389
relative viability ([8]; first compound 0.253 µM): 0.772
relative viability ([8]; first compound 0.8 µM): 0.771
relative viability ([8]; first compound 2.53 µM): 0.862
relative viability ([9]; first compound 0.08 µM): 0.347
relative viability ([9]; first compound 0.253 µM): 0.316
relative viability ([9]; first compound 0.8 µM): 0.365
relative viability ([9]; first compound 2.53 µM): 0.392
relative viability ([10]; first compound 0.08 µM): 0.621
relative viability ([10]; first compound 0.253 µM): 0.547
relative viability ([10]; first compound 0.8 µM): 0.574
relative viability ([10]; first compound 2.53 µM): 0.651
relative viability ([11]; first compound 0.08 µM): 0.8
relative viability ([11]; first compound 0.253 µM): 0.611
relative viability ([11]; first compound 0.8 µM): 0.594
relative viability ([11]; first compound 2.53 µM): 0.446
relative viability ([12]; first compound 0.08 µM): 0.529
relative viability ([12]; first compound 0.253 µM): 0.5
relative viability ([12]; first compound 0.8 µM): 0.478
relative viability ([12]; first compound 2.53 µM): 0.47
relative viability ([13]; first compound 0.08 µM): 0.36
relative viability ([13]; first compound 0.253 µM): 0.269
relative viability ([13]; first compound 0.8 µM): 0.224
relative viability ([13]; first compound 2.53 µM): 0.202
relative viability ([15]; first compound 0.08 µM): 0.758
relative viability ([15]; first compound 0.253 µM): 0.595
relative viability ([15]; first compound 0.8 µM): 0.744
relative viability ([15]; first compound 2.53 µM): 0.333
relative viability ([16]; first compound 0.08 µM): 0.242
relative viability ([16]; first compound 0.253 µM): 0.169
relative viability ([16]; first compound 0.8 µM): 0.193
relative viability ([16]; first compound 2.53 µM): 0.171
relative viability ([17]; first compound 0.08 µM): 0.818
relative viability ([17]; first compound 0.253 µM): 0.583
relative viability ([17]; first compound 0.8 µM): 0.575
relative viability ([17]; first compound 2.53 µM): 0.506
relative viability ([18]; first compound 0.08 µM): 0.973
relative viability ([18]; first compound 0.253 µM): 0.919
relative viability ([18]; first compound 0.8 µM): 0.941
relative viability ([18]; first compound 2.53 µM): 0.983
relative viability ([19]; first compound 0.08 µM): 1.01
relative viability ([19]; first compound 0.8 µM): 0.774
relative viability ([19]; first compound 2.53 µM): 0.695
relative viability ([20]; first compound 0.08 µM): 0.526
relative viability ([20]; first compound 0.253 µM): 0.546
relative viability ([20]; first compound 0.8 µM): 0.566
relative viability ([20]; first compound 2.53 µM): 0.675
relative viability ([22]; first compound 0.08 µM): 0.313
relative viability ([22]; first compound 0.253 µM): 0.16
relative viability ([22]; first compound 0.8 µM): 0.247
relative viability ([22]; first compound 2.53 µM): 0.256

— the supplement of paper PMC10307832
